Source: ChEMBL document CHEMBL3352260, “Identification and development of biphenyl substituted iminosugars as improved dual glucosylceramide synthase/neutral glucosylceramidase inhibitors” (J Med Chem, 2014)

What was measured:
[1] = molecular target: Sucrase-isomaltase, intestinal (Homo sapiens, UniProt P14410); test: Inhibition of intestinal sucrase (unknown origin)
Maltase-glucoamylase = Maltase-glucoamylase (Homo sapiens, UniProt O43451); test: Inhibition of intestinal maltase (unknown origin)
Maltase-glucoamylase, sequence (O43451 whole entry): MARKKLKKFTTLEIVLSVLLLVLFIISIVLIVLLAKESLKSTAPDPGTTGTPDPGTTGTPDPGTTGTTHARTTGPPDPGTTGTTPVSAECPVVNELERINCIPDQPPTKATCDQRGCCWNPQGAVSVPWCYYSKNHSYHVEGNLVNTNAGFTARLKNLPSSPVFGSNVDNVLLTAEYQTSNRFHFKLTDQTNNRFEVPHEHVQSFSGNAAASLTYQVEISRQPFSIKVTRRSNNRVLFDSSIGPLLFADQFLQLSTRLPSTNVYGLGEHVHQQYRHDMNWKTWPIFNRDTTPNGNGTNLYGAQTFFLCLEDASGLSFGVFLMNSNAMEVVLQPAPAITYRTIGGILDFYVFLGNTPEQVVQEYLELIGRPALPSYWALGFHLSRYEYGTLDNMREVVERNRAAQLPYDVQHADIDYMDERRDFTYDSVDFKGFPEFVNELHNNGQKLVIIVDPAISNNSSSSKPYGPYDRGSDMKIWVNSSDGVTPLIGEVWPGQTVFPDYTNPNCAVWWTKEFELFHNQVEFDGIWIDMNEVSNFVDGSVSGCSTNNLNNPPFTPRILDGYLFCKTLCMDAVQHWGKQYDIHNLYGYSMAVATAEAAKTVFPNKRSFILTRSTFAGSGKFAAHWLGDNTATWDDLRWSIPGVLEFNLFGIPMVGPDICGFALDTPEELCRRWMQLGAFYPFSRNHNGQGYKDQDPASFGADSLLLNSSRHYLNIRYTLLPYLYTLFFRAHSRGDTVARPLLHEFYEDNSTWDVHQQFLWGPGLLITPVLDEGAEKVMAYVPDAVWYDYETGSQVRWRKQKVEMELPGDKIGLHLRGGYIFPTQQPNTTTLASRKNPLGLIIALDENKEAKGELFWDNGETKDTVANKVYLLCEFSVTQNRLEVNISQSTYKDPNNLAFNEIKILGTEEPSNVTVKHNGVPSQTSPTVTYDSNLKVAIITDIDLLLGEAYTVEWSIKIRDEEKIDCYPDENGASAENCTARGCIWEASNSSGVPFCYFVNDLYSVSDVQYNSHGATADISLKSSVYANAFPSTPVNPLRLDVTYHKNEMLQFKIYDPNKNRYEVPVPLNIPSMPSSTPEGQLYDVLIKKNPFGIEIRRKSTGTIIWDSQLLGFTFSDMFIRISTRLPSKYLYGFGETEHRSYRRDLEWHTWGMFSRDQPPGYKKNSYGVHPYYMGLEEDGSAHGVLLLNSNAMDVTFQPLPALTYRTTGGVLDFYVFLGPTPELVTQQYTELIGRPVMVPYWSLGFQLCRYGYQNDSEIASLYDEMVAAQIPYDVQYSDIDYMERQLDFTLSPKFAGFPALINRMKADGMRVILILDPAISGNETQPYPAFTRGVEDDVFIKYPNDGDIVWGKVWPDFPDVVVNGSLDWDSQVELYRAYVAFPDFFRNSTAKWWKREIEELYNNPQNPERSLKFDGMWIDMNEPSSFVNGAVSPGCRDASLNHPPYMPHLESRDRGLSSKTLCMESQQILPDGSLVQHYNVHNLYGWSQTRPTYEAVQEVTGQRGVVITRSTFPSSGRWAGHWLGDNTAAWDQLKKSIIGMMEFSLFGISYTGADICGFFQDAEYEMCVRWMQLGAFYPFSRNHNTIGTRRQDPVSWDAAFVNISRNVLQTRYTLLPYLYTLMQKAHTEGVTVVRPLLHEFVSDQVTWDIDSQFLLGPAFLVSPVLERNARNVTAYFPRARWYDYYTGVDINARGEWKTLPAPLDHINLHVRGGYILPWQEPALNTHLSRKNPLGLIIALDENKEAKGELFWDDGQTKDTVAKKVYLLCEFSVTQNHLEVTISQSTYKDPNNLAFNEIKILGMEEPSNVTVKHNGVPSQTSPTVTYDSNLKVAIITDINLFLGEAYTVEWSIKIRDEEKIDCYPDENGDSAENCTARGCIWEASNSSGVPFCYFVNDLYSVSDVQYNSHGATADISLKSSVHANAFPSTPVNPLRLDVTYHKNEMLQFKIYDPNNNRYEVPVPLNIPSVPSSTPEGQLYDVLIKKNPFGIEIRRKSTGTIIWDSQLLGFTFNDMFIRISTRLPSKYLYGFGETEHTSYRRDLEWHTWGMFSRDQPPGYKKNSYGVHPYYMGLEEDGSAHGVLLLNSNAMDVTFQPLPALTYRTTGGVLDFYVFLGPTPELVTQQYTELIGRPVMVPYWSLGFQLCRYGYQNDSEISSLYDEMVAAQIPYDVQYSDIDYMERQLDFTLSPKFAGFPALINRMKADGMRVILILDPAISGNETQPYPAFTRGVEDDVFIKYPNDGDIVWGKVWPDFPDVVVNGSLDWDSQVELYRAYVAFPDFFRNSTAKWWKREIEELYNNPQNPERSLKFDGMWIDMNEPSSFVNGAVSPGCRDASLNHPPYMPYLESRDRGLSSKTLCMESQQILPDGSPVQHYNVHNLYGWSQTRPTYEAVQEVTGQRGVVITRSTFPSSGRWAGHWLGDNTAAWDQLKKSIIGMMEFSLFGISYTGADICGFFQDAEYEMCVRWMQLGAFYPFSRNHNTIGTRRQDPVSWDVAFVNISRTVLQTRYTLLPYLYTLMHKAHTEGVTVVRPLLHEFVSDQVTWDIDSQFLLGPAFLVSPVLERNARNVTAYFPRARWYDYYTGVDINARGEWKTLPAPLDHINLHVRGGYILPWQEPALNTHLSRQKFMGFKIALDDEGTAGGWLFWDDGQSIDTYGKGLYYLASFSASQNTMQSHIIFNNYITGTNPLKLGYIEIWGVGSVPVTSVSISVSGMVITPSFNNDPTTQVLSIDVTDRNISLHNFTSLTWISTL

[2] = molecular target: Lactase/phlorizin hydrolase (Homo sapiens, UniProt P09848); test: Inhibition of intestinal lactase (unknown origin)
Lactase/phlorizin hydrolase, sequence (P09848 869-1927 limits assumed): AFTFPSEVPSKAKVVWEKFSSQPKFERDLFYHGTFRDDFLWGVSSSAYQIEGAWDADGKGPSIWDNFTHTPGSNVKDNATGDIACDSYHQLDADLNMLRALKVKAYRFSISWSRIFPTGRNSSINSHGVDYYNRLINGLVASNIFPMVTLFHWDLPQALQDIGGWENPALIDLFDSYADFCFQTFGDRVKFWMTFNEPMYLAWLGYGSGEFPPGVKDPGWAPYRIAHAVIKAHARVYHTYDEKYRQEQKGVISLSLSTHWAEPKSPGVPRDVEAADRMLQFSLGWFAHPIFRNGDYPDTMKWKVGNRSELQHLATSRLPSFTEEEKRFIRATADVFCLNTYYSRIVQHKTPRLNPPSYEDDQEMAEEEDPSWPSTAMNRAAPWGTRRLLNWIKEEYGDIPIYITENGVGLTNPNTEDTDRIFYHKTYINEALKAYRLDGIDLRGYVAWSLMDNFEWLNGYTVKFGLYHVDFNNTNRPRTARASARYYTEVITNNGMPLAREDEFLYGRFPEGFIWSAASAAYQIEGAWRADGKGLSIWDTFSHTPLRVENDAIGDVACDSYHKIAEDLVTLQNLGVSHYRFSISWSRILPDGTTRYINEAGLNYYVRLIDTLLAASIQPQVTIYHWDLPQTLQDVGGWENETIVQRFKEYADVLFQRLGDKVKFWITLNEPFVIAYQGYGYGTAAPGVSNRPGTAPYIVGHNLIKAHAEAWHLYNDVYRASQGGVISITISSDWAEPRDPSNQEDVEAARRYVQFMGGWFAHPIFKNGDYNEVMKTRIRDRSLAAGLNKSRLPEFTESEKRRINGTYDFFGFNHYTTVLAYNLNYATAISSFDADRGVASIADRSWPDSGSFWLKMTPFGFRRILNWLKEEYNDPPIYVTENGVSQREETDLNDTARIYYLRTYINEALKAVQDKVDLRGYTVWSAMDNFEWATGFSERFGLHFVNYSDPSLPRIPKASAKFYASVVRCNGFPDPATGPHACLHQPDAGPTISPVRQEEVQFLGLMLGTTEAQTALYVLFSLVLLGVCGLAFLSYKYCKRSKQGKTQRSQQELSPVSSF

Beta-glucosidase = molecular target: T1, Beta-glucosidase (Homo sapiens, UniProt Q9HCG7)
T1 sequence (Q9HCG7 whole entry): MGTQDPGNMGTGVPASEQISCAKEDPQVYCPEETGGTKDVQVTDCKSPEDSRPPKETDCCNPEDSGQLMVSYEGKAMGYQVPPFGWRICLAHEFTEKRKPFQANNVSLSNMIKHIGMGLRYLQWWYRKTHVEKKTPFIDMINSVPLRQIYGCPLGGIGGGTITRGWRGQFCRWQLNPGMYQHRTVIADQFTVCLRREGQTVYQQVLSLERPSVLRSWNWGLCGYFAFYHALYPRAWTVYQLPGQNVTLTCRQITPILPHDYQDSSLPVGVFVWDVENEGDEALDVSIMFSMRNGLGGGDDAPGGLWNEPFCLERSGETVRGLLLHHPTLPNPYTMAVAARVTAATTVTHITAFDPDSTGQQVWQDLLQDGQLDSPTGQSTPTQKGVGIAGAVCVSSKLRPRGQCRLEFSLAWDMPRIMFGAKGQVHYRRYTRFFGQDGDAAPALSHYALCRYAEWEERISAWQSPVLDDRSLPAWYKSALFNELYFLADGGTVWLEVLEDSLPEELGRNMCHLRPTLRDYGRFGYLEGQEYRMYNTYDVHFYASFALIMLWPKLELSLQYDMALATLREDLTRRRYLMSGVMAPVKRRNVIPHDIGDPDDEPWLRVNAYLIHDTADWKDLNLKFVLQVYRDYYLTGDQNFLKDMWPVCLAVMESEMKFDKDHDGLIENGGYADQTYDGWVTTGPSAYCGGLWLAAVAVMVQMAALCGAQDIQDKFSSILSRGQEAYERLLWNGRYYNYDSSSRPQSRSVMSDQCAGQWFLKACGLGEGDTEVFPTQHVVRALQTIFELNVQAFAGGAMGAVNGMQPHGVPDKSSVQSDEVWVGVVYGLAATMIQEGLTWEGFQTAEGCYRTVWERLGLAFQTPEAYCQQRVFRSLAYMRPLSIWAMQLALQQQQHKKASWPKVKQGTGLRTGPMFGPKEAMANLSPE

[3] = molecular target: T2, Lysosomal acid glucosylceramidase (Homo sapiens, UniProt P04062)
T2 sequence (P04062 whole entry): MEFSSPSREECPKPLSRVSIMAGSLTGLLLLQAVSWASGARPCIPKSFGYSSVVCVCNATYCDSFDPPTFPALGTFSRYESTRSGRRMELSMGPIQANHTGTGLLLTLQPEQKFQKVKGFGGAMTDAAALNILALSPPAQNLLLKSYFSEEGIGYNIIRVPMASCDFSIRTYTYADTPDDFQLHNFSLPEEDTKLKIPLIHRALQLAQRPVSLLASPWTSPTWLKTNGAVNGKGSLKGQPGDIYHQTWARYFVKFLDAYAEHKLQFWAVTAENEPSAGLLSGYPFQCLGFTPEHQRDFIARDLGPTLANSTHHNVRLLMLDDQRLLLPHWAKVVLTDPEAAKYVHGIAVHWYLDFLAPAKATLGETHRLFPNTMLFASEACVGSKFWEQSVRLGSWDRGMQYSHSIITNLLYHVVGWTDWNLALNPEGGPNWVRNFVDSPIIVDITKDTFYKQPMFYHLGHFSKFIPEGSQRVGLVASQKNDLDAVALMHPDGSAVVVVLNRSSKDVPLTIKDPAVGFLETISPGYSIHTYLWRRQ

[4] = molecular target: T3, Ceramide glucosyltransferase (Homo sapiens, UniProt Q16739)
T3 sequence (Q16739 whole entry): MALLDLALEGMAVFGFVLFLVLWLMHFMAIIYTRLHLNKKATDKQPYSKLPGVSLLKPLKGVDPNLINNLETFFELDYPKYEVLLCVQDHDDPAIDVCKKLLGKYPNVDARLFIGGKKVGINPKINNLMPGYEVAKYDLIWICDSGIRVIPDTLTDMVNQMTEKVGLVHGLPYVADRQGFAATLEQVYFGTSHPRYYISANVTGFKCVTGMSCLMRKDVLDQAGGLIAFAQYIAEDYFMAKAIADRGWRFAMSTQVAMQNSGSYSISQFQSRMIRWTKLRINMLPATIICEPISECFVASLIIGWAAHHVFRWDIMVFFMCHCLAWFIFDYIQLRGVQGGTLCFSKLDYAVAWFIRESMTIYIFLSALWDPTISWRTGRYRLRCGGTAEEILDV

[5] = molecular target: T3, Ceramide glucosyltransferase; remark: listed apart in the source

| Compound | IC50 [1] | IC50 (Maltase-glucoamylase) | IC50 [2] | IC50 (Beta-glucosidase) | IC50 [3] | IC50 [4] | IC50 [5] |
| --- | --- | --- | --- | --- | --- | --- | --- |
| CC(C)=CCC/C(C)=C/CC/C(C)=C/CCOCCCCCN1C[C@H](O)[C@@H](O)[C@H](O)[C@H]1CO |  |  |  | 100 nM | 2500 nM | Not Active |  |
| OC[C@H]1[C@@H](O)[C@H](O)[C@@H](O)CN1CCCCCCC12CC3CC(CC(C3)C1)C2 |  |  |  | 20 nM | 25000 nM | Not Active |  |
| OC[C@H]1[C@@H](O)[C@H](O)[C@@H](O)CN1CCCC/C=C\C12CC3CC(CC(C3)C1)C2 |  |  |  | 8 nM | 12000 nM | Not Active |  |
| OC[C@H]1[C@@H](O)[C@H](O)[C@@H](O)CN1CCCCCOCc1cc2ccccc2c2ccccc12 |  |  |  | 200 nM | 600000 nM | Not Active |  |
| OC[C@H]1[C@@H](O)[C@H](O)[C@@H](O)CN1CC(F)(F)CCCOCc1ccc(-c2ccccc2)cc1 | > 100000 nM | > 100000 nM | > 100000 nM |  |  |  | 20 nM |
| OC[C@@H]1[C@@H](O)[C@H](O)[C@@H](O)CN1CCCCCCC12CC3CC(CC(C3)C1)C2 |  |  |  | 10 nM | 60 nM | Not Active |  |
| OC[C@@H]1[C@@H](O)[C@H](O)[C@@H](O)CN1CCCC/C=C\C12CC3CC(CC(C3)C1)C2 |  |  |  | 5 nM | 500 nM | Not Active |  |
| OC[C@@H]1[C@@H](O)[C@H](O)[C@@H](O)CN1CCCCCOCc1cc2ccccc2c2ccccc12 |  |  |  | 100 nM | 10000 nM | Not Active |  |

Further lines, results first:

| IC50 [1] | IC50 (Maltase-glucoamylase) | IC50 [2] | IC50 (Beta-glucosidase) | IC50 [3] | IC50 [4] | IC50 [5] | Compound |
| --- | --- | --- | --- | --- | --- | --- | --- |
| 500 nM | 4000 nM | 35000 nM | 3 nM | 300 nM |  |  | C[C@@H](OCCCCCN1C[C@H](O)[C@@H](O)[C@H](O)[C@H]1CO)c1ccc(-c2ccccc2)cc1 |
| 250 nM | 2500 nM | 9000 nM | 3 nM | 400000 nM |  |  | C[C@H](OCCCCCN1C[C@H](O)[C@@H](O)[C@H](O)[C@H]1CO)c1ccc(-c2ccccc2)cc1 |
| 35000 nM | > 100000 nM | > 100000 nM | 10 nM | 125 nM |  | 1250 nM | OC[C@@H]1[C@@H](O)[C@H](O)[C@@H](O)CN1CC(F)(F)CCCOCc1ccc(-c2ccccc2)cc1 |
| 100000 nM | > 100000 nM | 60000 nM |  |  |  | 70 nM | OC[C@H]1[C@@H](O)[C@H](O)[C@@H](O)CN1CCCCCOCc1cccc(-c2ccccc2)c1 |
| 400 nM | 9000 nM | 27000 nM | 1 nM | 300 nM |  | 60 nM | OC[C@@H]1[C@@H](O)[C@H](O)[C@@H](O)CN1CCCC(F)(F)COCc1ccc(-c2ccccc2)cc1 |
